This assay relates to Aplysia californica. Type of assay: in vivo.

SMILES strings stand for the structures. Some results are limits rather than exact numbers.

Take `NCC(O)c1ccc(O)cc1` (stereo not shown) [octopamine]: the “Behavior vs saline-injected control” value (in vivo) was “did not alter A. californica behavior significantly different from control”.
Turning to `NCCc1c[nH]c2ccc(O)cc12` [serotonin], under “in vivo”, the Behavioral phenotype result was “notable inability of the animal's foot to completely stick to the tank wall, resulting in impaired locomotion” and the “Onset of behavioral phenotype after injection” value is ≤ 1 min. Where the note is “n = 3”, the Locomotion result is “immediate hyperlocomotive phenotype”.

The values above are taken from paper PMC11568388 (Molecular Biology and Evolution, 2024).
